Numbered stars: 1 amine (or outer) side, 2 acyl side, 3 side chain; on linkers, the order of the positions; unused ones are H or OH. Bridge positions count the residues as written; N and C are the ends. Square brackets hold non-standard residues; d marks the D form. Peptide text beside a SMILES is read from it. I, II: the chains in the order shown. Actinocin(9to1) = Cc1c2oc3c(C)ccc(C(=O)[*:1])c3nc-2c(C(=O)[*:2])c(N)c1=O; NMeV = CN[C@H](C(=O)O)C(C)C; Sar = CNCC(=O)O

The values that follow come from US7405038B1, “Stable cell lines resistant to apoptosis and nutrient stress and methods of making same” (Boyce Thompson Institute for Plant Research, Inc., priority 2000, dated 2008).

Test in all cases: DNA laddering on agarose gel after actinomycin D exposure
Type in all cases: cell-based, Spodoptera frugiperda
What all share (details): 0.1 μg/ml actinomycin D for one hour, 24 hours in fresh TNMFH

For one assay, the system named is Sf9 cells. As to the method:
(§1) To further examine resistance to apoptosis by P35 expressing cells, Sf9, Sf9^P35AcV5−1 and Sf9^P35AcV5−3 cells were plated at 2×10^6 cells/well in 6-well plates, then exposed to actinomycin D (0.1 μg/ml) for one hour, and incubated in fresh TNMFH medium at 27° C. for 24 hours. Cells were harvested and washed twice with PBS. Lysates were prepared by incubating cells in 200 μl lysis buffer (10 mM Tris pH 7.5, 25 mM EDTA, 0.2% Triton X-100) for one hour at room temperature. The lysate was extracted once with phenol, once with phenol:chloroform (1:1), twice with chloroform, and then precipitated in two volumes of ethanol. Cellular DNA was resuspended in 30 μl water containing RNAse A (50 μg/ml). 10 μl of DNA from each cell treatment was electrophoresed on a 1.2% agarose gel in TBE buffer (not shown).

A further assay has as its system Sf9P35AcV5-1 cells. As to the method:
as §1

A further assay has as its system Sf9P35AcV5-3 cells. As to the method: as §1

In the case of `Cc1c2oc3c(C)ccc(C(=O)N[C@@H]4C(=O)N[C@H](C(C)C)C(=O)N5CCC[C@H]5C(=O)N(C)CC(=O)N(C)[C@@H](C(C)C)C(=O)O[C@@H]4C)c3nc-2c(C(=O)N[C@@H]2C(=O)N[C@H](C(C)C)C(=O)N3CCC[C@H]3C(=O)N(C)CC(=O)N(C)[C@@H](C(C)C)C(=O)O[C@@H]2C)c(N)c1=O` [Actinomycin D, actinomycin D] (I: T[dV]P[Sar][NMeV] / II: T[dV]P[Sar][NMeV]; ester I:1-I:C, II:1-II:C; linker I:N-II:N via Actinocin(9to1)), the “DNA laddering / degradation on ethidium bromide stained gel” value with Sf9 cells is recorded as “DNA laddering effect typical of apoptosis”; with Sf9P35AcV5-1 cells it was “little or no laddering or degradation”; with Sf9P35AcV5-3 cells it was “little or no laddering or degradation”.
